Measured values from patent US20160106837A1, “COMBINATION OF CD37 ANTIBODIES WITH CHLORAMBUCIL” (BOEHRINGER INGELHEIM INTERNATIONAL GMBH, priority 2013, published 2016).
“Also recorded” adds a separate entry of the source.

Legend:
[1] = Body weight / tolerability in DOHH2 tumor-bearing C.B-17 scid mice
[2] = tested on: human follicular lymphoma DOHH2; assay: Subcutaneous xenograft model of the human follicular lymphoma DOHH2 in C.B-17 scid mice: tumor growth; assay type: in vivo

O=C(O)CCCc1ccc(N(CCCl)CCCl)cc1 [chlorambucil, 4-[Bis(2-chloroethy)amino]benzenebutaonic acid]
body weight loss during first week ([1]; after one week / first 7 days of the study): 13.4%
Weight change ([1]; median body weight change, day 16): −5.4%
CR (complete tumor regression) ([2]; day 16): 0 x/7
PR (partial tumor regression) ([2]; day 16): 0 x/7
tumor regression (in words) ([2]; day 16): tumor regressions were not observed
TGI ([2]; median, day 16, A2 10 mg/kg i.p. d1,5,8,12,15, chlorambucil 6 mg/kg i.p. d2,6): 71%
tumor growth inhibition (in words) ([2]; vs controls): moderate but significant inhibition of tumor growth; also recorded: moderate but significant efficacy
